The source of these data is publication PMC6934184, “Selective DNA-PKcs inhibition extends the therapeutic index of localized radiotherapy and chemotherapy” (The Journal of Clinical Investigation, 2019).

For the test, the target named is T1, SGKL (SGK3) (Homo sapiens, UniProt Q96BR1).
T1 construct: purchased Thermo Fisher Scientific (Life Technologies) SelectScreen
As to the kind of experiment: SelectScreen Z'LYTE. The class given is biochemical. A digest of the protocol: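 NU5455 was profiled across the SelectScreen Broad panel of kinase activity and binding assays. Z'LYTE reactions such as CSF1R ran at apparent Km ATP, while the Adapta CAMK1 assay used ATP listed as 10. Values are given as percent.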

T1 sequence (Q96BR1 whole entry): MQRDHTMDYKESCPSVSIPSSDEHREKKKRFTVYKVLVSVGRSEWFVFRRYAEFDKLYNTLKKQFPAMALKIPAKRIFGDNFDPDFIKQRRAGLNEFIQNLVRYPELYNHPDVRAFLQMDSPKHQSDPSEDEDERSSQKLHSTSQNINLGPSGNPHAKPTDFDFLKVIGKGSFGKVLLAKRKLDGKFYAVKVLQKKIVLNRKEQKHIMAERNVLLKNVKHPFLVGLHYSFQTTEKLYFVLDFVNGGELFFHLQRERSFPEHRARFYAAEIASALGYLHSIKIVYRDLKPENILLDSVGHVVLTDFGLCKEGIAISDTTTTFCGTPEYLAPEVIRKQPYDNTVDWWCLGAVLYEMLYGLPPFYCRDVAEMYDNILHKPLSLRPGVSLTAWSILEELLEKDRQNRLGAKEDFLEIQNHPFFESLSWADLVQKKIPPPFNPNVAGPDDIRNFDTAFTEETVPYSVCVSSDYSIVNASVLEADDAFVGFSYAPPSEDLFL

As a reminder, the inhibition is the drop in the measured response relative to a control, in per cent. As for `CN(C(=O)CN1CCOCC1)c1ccc2sc3c(-c4cccc5c(=O)cc(N6CC7CCC(C6)O7)oc45)cccc3c2c1` [NU5455], the inhibition at 1 µM is -4.6%.
